The test system of experiment [1] is Alternaria brassicae. The experiment is described as follows: Efficacy against Alternaria brassicae (in vitro), growth on PDA medium. As to conditions: radial growth after 14 days. The format is cell-based. Here is the method:
The growth of Alternaria brassicae was followed on PDA medium containing the compounds alone or in mixtures. The PDA medium is prepared by mixing 39 grams of PDA (Merck) in 1 litter of demineralised water. The medium is sterilized by autoclave 15 minutes at 121° C. The compounds are dissolved in acetone and added to the medium before pouring it in Petri dishes. After medium drying, the fungus is inoculated on the medium and allowed to growth at 19° C. The percentage of efficacy is noted after 14 days of growth (measurement of the radial growth) of the fungus in comparison with a control. […]

The test system of experiment [2] is Sphaerotheca fuliginea. Put plainly: Efficacy against Sphaerotheca fuliginea on gherkin plants (preventive spray). As to conditions: Podosphaera fuliginea, 504 h, grading 21 days after contamination. The format is in vivo. Here is the method:
(§1) The active ingredients tested are prepared by potter homogenisation in a mixture of acetone/tween/water. This suspension is then diluted with water to obtain the desired active material concentration.
Gherkin plants (Vert petit de Paris variety) in starter cups, sown on a 50/50 peat soil-pozzolana substrate and grown at 20° C./23° C., are treated at the 2-leaves stage by spraying with the aqueous suspension described above. Plants, used as controls, are treated with an aqueous solution not containing the active material.
After 24 hours, the plants are contaminated by spraying them with an aqueous suspension of Sphaerotheca fuliginea spores (100 000 spores per ml). The spores are collected from a contaminated plants. The contaminated gherkin plants are incubated at about 20° C./25° C. and at 60/70% relative humidity.
Grading (% of efficacy) is carried out 21 days after the contamination, in comparison with the control plants.

Experiment [3] relates to Botrytis cinerea. Put plainly: Efficacy against Botrytis cinerea on gherkin plants (preventive spray). The format is in vivo. To be noted: grading 5 to 7 days after contamination. The procedure:
as §1
Gherkin plants (Petit vert de Paris variety) in starter cups, sown on a 50/50 peat soil-pozzolana substrate and grown at 18-20° C., are treated at the cotyledon Z11 stage by spraying with the aqueous suspension described above. Plants, used as controls, are treated with an aqueous solution not containing the active material.
After 24 hours, the plants are contaminated by depositing drops of an aqueous suspension of Botrytis cinerea spores (150,000 spores per ml) on upper surface of the leaves. The spores are collected from a 15-day-old culture and are suspended in a nutrient solution composed of: • 20 g/L of gelatine • 50 g/L of cane sugar • 2 g/L of NH4NO3 • 1 g/L of KH2PO4
The contaminated gherkin plants are settled for 5/7 days in a climatic room at 15-11° C. (day/night) and at 80% relative humidity. Grading is carried out 5 to 7 days after contamination, in comparison with the control plants.
Gherkin plants (Petit vert de Paris variety) in starter cups, sown on a 50/50 peat soil-pozzolana substrate and grown at 18-20° C., are treated at the cotyledon Z 11 stage by spraying with the aqueous suspension described above. Plants, used as controls, are treated with an aqueous solution not containing the active material.
(§2) The formulated compounds are diluted with water to obtain the desired active material concentration.

Experiment [4] relates to Erysiphe graminis f. sp. tritici. Put plainly: Efficacy against Erysiphe graminis f. sp. tritici on wheat plants (preventive spray). The format is in vivo. To be noted: grading 7 to 14 days after contamination. The procedure:
as §1
Wheat plants (Audace variety) in starter cups, sown on 50/50 peat soil-pozzolana substrate and grown at 12° C., are treated at the 1-leaf stage (10 cm tall) by spraying with the aqueous suspension described above.
(§3) Plants, used as controls, are treated with an aqueous solution not containing the active material.
After 24 hours, the plants are contaminated by dusting them with Erysiphe graminis f. sp. tritici spores, the dusting being carried out using diseased plants.
Grading is carried out 7 to 14 days after the contamination, in comparison with the control plants.
as §2
Wheat plants (Audace variety) in starter cups, sown on 50/50 peat soil-pozzolana substrate and grown at 12° C., are treated at the 1-leaf stage (10 cm tall) by spraying with the aqueous suspension described above. Plants, used as controls, are treated with an aqueous solution not containing the active material.

Experiment [5] relates to Alternaria brassicae. The experiment is described as follows: Efficacy against Alternaria brassicae on radish plants (preventive spray). The format is in vivo. As to conditions: Example 13, dose 111 ppm, grading 6 to 7 days after contamination. Here is the method:
as §2
Radish plants (Pernot variety) in starter cups, sown on a 50/50 peat soil-pozzolana substrate and grown at 18-20° C., are treated at the cotyledon stage by spraying with the aqueous suspension described above.
as §3
After 24 hours, the plants are contaminated by spraying them with an aqueous suspension of Alternaria brassicae spores (40,000 spores per cm^3). The spores are collected from a 12-13-day-old culture.
The contaminated radish plants are incubated for 6-7 days at about 18° C., under a humid atmosphere.
Grading is carried out 6 to 7 days after the contamination, in comparison with the control plants.

The test system of experiment [6] is Pyrenophora teres. The experiment is described as follows: Efficacy against Pyrenophora teres on barley plants (preventive spray). The format is in vivo. To be noted: 288 h, grading 12 days after contamination. The procedure: as §1
Barley plants (Express variety) in starter cups, sown on a 50/50 peat soil-pozzolana substrate and grown at 12° C., are treated at the 1-leaf stage (10 cm tall) by spraying with the aqueous suspension described above. Plants, used as controls, are treated with an aqueous solution not containing the active material.
After 24 hours, the plants are contaminated by spraying them with an aqueous suspension of Pyrenophora teres spores (12 000 spores per ml). The spores are collected from a 12-day-old culture. The contaminated barley plants are incubated for 24 hours at about 20° C. and at 100% relative humidity, and then for 12 days at 80% relative humidity.
Grading (% of efficacy) is carried out 12 days after the contamination, in comparison with the control plants.

The structures appear in SMILES notation.

With `CO/C=C(/C(=O)OC)c1ccccc1Oc1cc(Oc2ccccc2C#N)ncn1` [Azoxystrobin, azoxystrobin], the “% Efficacy” value in experiment [1] (Example 3, dose 0.025 ppm) came to 38%; in experiment [1] (Example 3, dose 0.05 ppm) it was 41%; in experiment [1] (Example 3, dose 0.1 ppm) it was 47%; in experiment [1] (Example 3, dose 0.25 ppm) it was 56%; in experiment [1] (Example 3, dose 0.5 ppm), 47%; in experiment [1] (Example 3, dose 1 ppm), 48%. The “% Efficacy” value in experiment [1] (Example 3, dose 2.5 ppm) worked out at 49%.

Turning to `O=C(Nc1ccccc1-c1ccc(Cl)cc1)c1cccnc1Cl` [Boscalid, boscalid, reference compound], the Emax at 4 ppm in experiment [2] (Example 11, dose 4 ppm) came to 0%. This compound also registered an Emax at 8 ppm in experiment [2] (Example 11, dose 8 ppm) of 10%. In experiment [2] (Example 11, dose 15 ppm), the Emax at 15 ppm was 45%.

With `CNC(=O)C(=NOC)c1ccccc1Oc1ncnc(Oc2cccc(Cl)c2C)c1F` [Compound A, 2-{2-[6-(3-Chloro-2-methylphenoxy)-5-fluoro-pyrimidin-4-yloxy]-phenyl}2-methoxyimino-N-methylacetamide], the Emax at 37 ppm in experiment [3] (Botrytis cinerea, Example 8, dose 37 ppm) was 0%. The same compound registered an Emax at 111 ppm in experiment [3] (Botrytis cinerea, Example 8, dose 111 ppm) of 0%. Further, the Emax at 333 ppm in experiment [3] (Botrytis cinerea, Example 8, dose 333 ppm) came to 0%.

In the case of `Cc1nn(C)c(F)c1C(=O)Nc1ccccc1C(C)CC(C)C` (centres unmarked) [Compound B, N-[2-(1,3-dimethyl-butyl)-phenyl]-5-fluoro-1,3-dimethyl-1H-pyrazole-4-carboxamide], the Emax at 4 ppm in experiment [3] (Botrytis cinerea, Example 10, dose 4 ppm) is 32%.

As for `Cn1cc(C(=O)Nc2ccc(F)cc2-c2ccc(Cl)c(Cl)c2)c(C(F)F)n1` [Compound C, N-(3′,4′-dichloro-5-fluorobiphenyl-2-yl)-3-(difluoro-methyl)-1-methyl-1H-pyrazole-4-carboxamide], the Emax at 31.2 ppm in experiment [2] (Example 12, dose 31.2 ppm) is 0%. This compound came in with an Emax at 62.5 ppm in experiment [2] (Example 12, dose 62.5 ppm) of 0%.

In experiment [3] (Botrytis cinerea, Example 14, dose 250 ppm, formulated compounds), `CC(C)CC(C)c1sccc1NC(=O)c1cn(C)nc1C(F)(F)F` (centres unmarked) [Compound D, N-[2-(1,3-dimethylbutyl)-thiophen-3-yl]1-methyl-3-(trifluoromethyl)-1H-pyrazole-4-carboxamide] gave an Emax at 250 ppm of 60%.

With `CNC(=O)/C(=N/OC)c1ccccc1COc1cc(C)ccc1C` [Dimoxystrobin, dimoxystrobin, reference compound], the “% Efficacy” value in experiment [4] (Example 9, dose 62.5 g/ha, formulated compounds) is recorded as 0%.

For `CSC1=N[C@@](C)(c2ccccc2)C(=O)N1Nc1ccccc1` [Fenamidone, fenamidone, reference compound], the Emax at 111 ppm in experiment [5] was 55%.

In experiment [4] (Blumeria graminis, Example 4, dose 15 ppm), `CO/N=C(/C1=NOCCO1)c1ccccc1Oc1ncnc(Oc2ccccc2Cl)c1F` [Fluoxastrobin, fluoxastrobin, reference compound] showed an Emax at 15 ppm of 20%.

For the compound `CO/N=C(/C(=O)OC)c1ccccc1COc1ccccc1C` [Kresoxim-methyl, kresoxim-methyl, reference compound], in experiment [3] (Botrytis cinerea, Example 5, dose 37 ppm), the Emax at 37 ppm was 0%. Also, the Emax at 111 ppm in experiment [3] (Botrytis cinerea, Example 5, dose 111 ppm) was found to be 0%. Besides, the Emax at 333 ppm in experiment [3] (Botrytis cinerea, Example 5, dose 333 ppm) turned out to be 0%.

With `CO/C=C(/C(=O)OC)c1ccccc1COc1cccc(C(F)(F)F)n1` [Picoxystrobin, picoxystrobin, reference compound], the “% Efficacy” value in experiment [3] (Example 6, dose 37 ppm) is on record as 0%; in experiment [3] (Example 6, dose 111 ppm), 35%; in experiment [3] (Example 6, dose 333 ppm), 40%.

Regarding `COC(=O)N(OC)c1ccccc1COc1ccn(-c2ccc(Cl)cc2)n1` [Pyraclostrobin, pyraclostrobin, reference compound], the Emax at 37 ppm in experiment [3] (Botrytis cinerea, Example 7, dose 37 ppm) was found to be 0%. In experiment [3] (Botrytis cinerea, Example 7, dose 111 ppm), the Emax at 111 ppm is 0%. The compound further displayed an Emax at 333 ppm in experiment [3] (Botrytis cinerea, Example 7, dose 333 ppm) of 0%.

In experiment [1] (Alternaria brassicae, 336 h, Example 2, dose 0.025 ppm), `CON=C(C(=O)OC)c1ccccc1CON=C(C)c1cccc(C(F)(F)F)c1` [Trifloxystrobin, trifloxystrobin] had an Emax at 0.025 ppm of 45%. The same compound gave an Emax at 0.05 ppm in experiment [1] (Alternaria brassicae, 336 h, Example 2, dose 0.05 ppm) of 44%. The same compound displayed an Emax at 0.1 ppm in experiment [1] (Alternaria brassicae, 336 h, Example 2, dose 0.1 ppm) of 45%. In experiment [1] (Alternaria brassicae, 336 h, Example 2, dose 0.25 ppm), the Emax at 0.25 ppm stood at 53%. The Emax at 0.5 ppm in experiment [1] (Alternaria brassicae, 336 h, Example 2, dose 0.5 ppm) was 60%. The compound also gave an Emax at 1 ppm in experiment [1] (Alternaria brassicae, 336 h, Example 2, dose 1 ppm) of 65%. The same compound had an Emax at 2.5 ppm in experiment [1] (Alternaria brassicae, 336 h, Example 2, dose 2.5 ppm) of 71%. Besides, the Emax at 4 g/ha in experiment [6] (Example 1, dose 4 g/ha) turned out to be 50%. The compound further yielded an Emax at 8 g/ha in experiment [6] (Example 1, dose 8 g/ha) of 70%.

Values taken from US9445590B2, “Fungicidal composition comprising a pyridylethylbenzamide derivative and a compound capable of inhibiting the transport of electrons of the respiratory chain in phytopathogenic fungal organisms” (BAYER INTELLECTUAL PROPERTY GMBH, priority 2004, dated 2016).
